Laboratory results published in patent publication US9242937B2, “Pharmaceutically active disubstituted pyridine derivatives” (Bayer Intellectual Property GmbH, priority 2011, dated 2016).

Experiments:
Type in all cases: biochemical
[1] = target: T1, CDK6/CyclinD3 (Homo sapiens, UniProt Q00534); assay: Lance Ultra KinaSelect Assay, CDK6; conditions: ULight MBP substrate, ATP 55 μM; read-out: CDK6 LANCE assay (activity range), IC50
T1 construct: purchased Carna
Experimental: (§1) This protocol describes how the Lance Ultra KinaSelect Assay was performed to determine half maximal inhibitory concentration (IC50) of compounds of general formula (I) and CDK/Cyclin complexes. The principle behind this enzymatic assay is based upon the phosphorylation of the ULight-Peptide Substrat. It is detected by using a specific EU-labeled anti-phospho peptide antibody. The binding of the Eu-labeled anti-phospho peptide antibody to the phosphorylated ULight labeled peptide gives rise to a FRET-signal. Binding of an inhibitor to the kinase prevents phosphorylation of the ULight-MBP Substrat, resulting in a loss of FRET.
(§2) The compounds of general formula (I) summarized in Table 5 were diluted from a 10 mM DMSO stock solution 1:10 in a total volume of 15 μL DMSO. […] Positive and negative controls were calculated from at least 8 different sample wells. […] Before reading, 10 μL the detection buffer (Lance Detection Buffer 1×; EDTA: […]; Eu-Anti-P-MBP: see Table 3) was added. The FRET signal was measured at 340 nm excitation, 665 nm and 615 nm emission (for the kinase tracer and LanthaScreen Eu-AB, respectively) with an Envision spectrophotometer (Perkin Elmer, Waltham, Mass., USA) with 50 μs delay and 300 μs integration time. IC50 values were determined from the sigmoidal dose response curves with the software Quattro Workflow (Quattro GmbH, Munich, Germany).

[2] = target: T2, CDK4/CyclinD1 (Homo sapiens, UniProt P11802); assay: Lance Ultra KinaSelect Assay, CDK4; conditions: ULight MBP substrate, ATP 90 μM; read-out: CDK4 LANCE assay (activity range), IC50
T2 construct: purchased Invitrogen
Experimental: as §1, §2

[3] = target: T3, CDK1/CyclinB1 (Homo sapiens, UniProt P06493); assay: Lance Ultra KinaSelect Assay, CDK1; conditions: ULight MBP substrate, ATP 20 μM; read-out: CDK1 LANCE assay (activity range), IC50
T3 construct: purchased Carna
Experimental: as §1, §2

T3 sequence (P06493 whole entry): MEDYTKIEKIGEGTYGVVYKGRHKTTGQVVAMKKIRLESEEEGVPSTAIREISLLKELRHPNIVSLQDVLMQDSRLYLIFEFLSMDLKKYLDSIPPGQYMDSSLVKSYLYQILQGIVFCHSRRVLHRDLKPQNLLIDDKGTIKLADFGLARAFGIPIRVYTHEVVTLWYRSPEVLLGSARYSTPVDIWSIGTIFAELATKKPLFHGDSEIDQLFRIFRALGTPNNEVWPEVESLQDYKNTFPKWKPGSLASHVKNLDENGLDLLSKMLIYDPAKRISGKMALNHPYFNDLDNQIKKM
T3 sequence (P14635 whole entry partner): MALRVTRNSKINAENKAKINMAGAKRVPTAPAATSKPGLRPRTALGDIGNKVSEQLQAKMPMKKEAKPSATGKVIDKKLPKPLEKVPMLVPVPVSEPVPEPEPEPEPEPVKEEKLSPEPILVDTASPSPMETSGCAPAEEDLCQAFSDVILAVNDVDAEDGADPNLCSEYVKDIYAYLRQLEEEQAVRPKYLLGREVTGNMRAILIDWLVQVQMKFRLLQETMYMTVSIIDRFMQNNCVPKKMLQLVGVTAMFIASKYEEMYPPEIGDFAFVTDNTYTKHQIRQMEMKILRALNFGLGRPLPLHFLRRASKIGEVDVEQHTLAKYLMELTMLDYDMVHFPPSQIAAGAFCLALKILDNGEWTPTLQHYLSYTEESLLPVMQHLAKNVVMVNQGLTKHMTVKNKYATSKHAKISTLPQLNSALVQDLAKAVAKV
T2 sequence (P11802 whole entry): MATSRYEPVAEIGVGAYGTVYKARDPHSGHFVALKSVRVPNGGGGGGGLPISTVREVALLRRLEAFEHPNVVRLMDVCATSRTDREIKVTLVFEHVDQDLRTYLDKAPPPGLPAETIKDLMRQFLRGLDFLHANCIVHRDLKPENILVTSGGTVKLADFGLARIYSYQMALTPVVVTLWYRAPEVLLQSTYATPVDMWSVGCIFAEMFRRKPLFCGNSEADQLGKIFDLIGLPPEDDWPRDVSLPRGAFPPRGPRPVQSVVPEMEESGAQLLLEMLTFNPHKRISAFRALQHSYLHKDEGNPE
T2 sequence (P24385 whole entry partner): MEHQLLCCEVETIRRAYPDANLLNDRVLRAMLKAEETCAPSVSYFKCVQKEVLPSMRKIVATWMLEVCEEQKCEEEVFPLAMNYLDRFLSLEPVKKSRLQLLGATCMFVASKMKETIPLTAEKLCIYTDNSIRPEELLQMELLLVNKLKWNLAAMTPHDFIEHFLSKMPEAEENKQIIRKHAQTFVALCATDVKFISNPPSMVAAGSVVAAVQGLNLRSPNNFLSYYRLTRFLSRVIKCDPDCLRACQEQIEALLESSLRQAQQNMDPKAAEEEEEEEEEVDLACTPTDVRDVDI
T1 sequence (Q00534 whole entry): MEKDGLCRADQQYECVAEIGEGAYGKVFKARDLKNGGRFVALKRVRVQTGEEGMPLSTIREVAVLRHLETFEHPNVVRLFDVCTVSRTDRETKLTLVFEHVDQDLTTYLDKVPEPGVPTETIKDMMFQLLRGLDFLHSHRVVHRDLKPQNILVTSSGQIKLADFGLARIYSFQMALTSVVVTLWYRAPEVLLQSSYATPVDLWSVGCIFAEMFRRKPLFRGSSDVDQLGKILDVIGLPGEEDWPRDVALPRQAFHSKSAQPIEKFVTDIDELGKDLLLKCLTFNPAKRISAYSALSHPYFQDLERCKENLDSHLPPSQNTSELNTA
T1 sequence (P30281 whole entry partner): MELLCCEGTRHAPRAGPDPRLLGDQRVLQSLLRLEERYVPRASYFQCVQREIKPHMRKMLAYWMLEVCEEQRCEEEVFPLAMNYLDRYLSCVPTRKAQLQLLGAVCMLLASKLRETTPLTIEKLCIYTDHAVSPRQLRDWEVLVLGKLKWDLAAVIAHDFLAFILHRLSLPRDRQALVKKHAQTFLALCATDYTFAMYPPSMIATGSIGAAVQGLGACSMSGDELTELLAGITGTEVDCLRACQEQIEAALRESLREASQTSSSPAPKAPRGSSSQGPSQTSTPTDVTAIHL

Row | IC50 [1] [µM] | IC50 [2] [µM] | IC50 [3] [µM] | SMILES
1 | > 10 | 1 to 10 | 1 to 10 | COc1cc(F)ccc1-c1ccnc(Nc2cccc(CS(N)(=O)=O)c2)c1 [Compound G1, [3-((4-(4-Fluoro-2-methoxyphenyl)pyridin-2-yl)amino)phenyl]-methanesulfonamide]
2 | > 10 | > 10 | 1 to 10 | COc1ccccc1-c1ccnc(Nc2cccc(S(N)(=O)=O)c2)c1 [Compound D1, 3-[(4-(2-Methoxyphenyl)pyridin-2-yl)amino]benzenesulfonamide]
